From patent US7718688B2, “Nitrobenzindoles and their use in cancer therapy” (Auckland Uniservices Limited, priority 2004, dated 2010)
Counter-ions that a name gives are not always drawn.

Assays:
[1] = system: SKOV3: human ovarian carcinoma cell line; assay: Proliferation IC50 assay, oxic/hypoxic, SKOV3; type: cell-based; settings: Table 3; for IC50: 4 h exposure under aerobic conditions; for HCR (hypoxic cytotoxicity ratio) SKOV3: IC50(aerobic)/IC10(hypoxic)
[2] = system: HT29: human colon cancer cell line; assay: Proliferation IC50 assay, oxic/hypoxic, HT29; type: cell-based; settings: Table 3; for IC50: 4 h exposure under aerobic conditions; for HCR (hypoxic cytotoxicity ratio) HT29: IC50(aerobic)/IC10(hypoxic)

SMILES | melting point | HCR (hypoxic cytotoxicity ratio) SKOV3 [1] | HCR (hypoxic cytotoxicity ratio) HT29 [2] | IC50 ([1]; Homo sapiens, SK-OV-3) [µM] | IC50 ([2]; Homo sapiens, HT-29) [µM] | other results
NS(=O)(=O)c1ccc2c3c(cc([N+](=O)[O-])c2c1)N(C(=O)c1cc2cc(OCCO)ccc2[nH]1)CC3CCl (centres unmarked) | 231 to 234 °C |  |  |  |  | 
NS(=O)(=O)c1ccc2c3c(cc([N+](=O)[O-])c2c1)N(C(=O)c1cc2cc(OCCOP(=O)(O)O)ccc2[nH]1)CC3CCl (centres unmarked) | 207 to 211 °C |  |  |  |  | 
COc1cc2cc(C(=O)N3CC(CCl)c4c3cc([N+](=O)[O-])c3cc(S(=O)(=O)NCCOP(=O)(O)O)ccc43)[nH]c2c(OC)c1OC (centres unmarked) | 228 to 232 °C |  |  |  |  | 
CCC(=O)NS(=O)(=O)c1ccc2c3c(cc([N+](=O)[O-])c2c1)N(C(=O)c1cc2cc(OCCN(C)C)ccc2[nH]1)CC3CCl (centres unmarked) | 221 to 225 °C |  |  |  |  | 
CN(C)CCOc1ccc2[nH]c(C(=O)N3CC(CCl)c4c3cc([N+](=O)[O-])c3c([N+](=O)[O-])cccc43)cc2c1 (centres unmarked) (as salt: HCl) [Compound 2, 1-(Chloromethyl)-3-(5-[2-(dimethylamino)ethoxy]indol-2-carbonyl)-5,6-dinitro-1,2-dihydro-3H-benzo[e]indole] | 225 to 226 °C |  |  |  |  | 
CN(C)CCOc1ccc2[nH]c(C(=O)N3CC(CCl)c4c3cc([N+](=O)[O-])c3cc([N+](=O)[O-])ccc43)cc2c1 (centres unmarked) (as salt: HCl) [Compound 9, 1-(Chloromethyl)-3-{5-[2-(dimethylamino)ethoxy]indol-2-carbonyl}-5,7-dinitro-1,2-dihydro-3H-benzo[e]indole] | 263 to 264 °C |  |  |  |  | 
COC(=O)c1ccc2c3c(cc([N+](=O)[O-])c2c1)N(C(=O)c1cc2cc(OCCN(C)C)ccc2[nH]1)CC3CCl (centres unmarked) (as salt: HCl) [Compound 14, Methyl 1-(chloromethyl)-3-{5-[2-(dimethylamino)ethoxy]indol-2-carbonyl}-5-nitro-1,2-dihydro-3H-benzo[e]indole-7-carboxylate] | > 300 °C |  |  |  |  | 
CN(C)CCOc1ccc2[nH]c(C(=O)N3CC(CCl)c4c3cc([N+](=O)[O-])c3cc(C(=O)NCCO)ccc43)cc2c1 (centres unmarked) (as salt: HCl) [Compound 19, 1-(Chloromethyl)-3-(5-[2-(dimethylamino)ethoxy]indol-2-carbonyl)-N-(2-hydroxyethyl)-5-nitro-1,2-dihydro-3H-benzo[e]indole-7-carboxamide] | 231 to 233 °C (dec.) |  |  |  |  | 
CN(C)CCOc1ccc2[nH]c(C(=O)N3CC(CCl)c4c3cc([N+](=O)[O-])c3cc(C#N)ccc43)cc2c1 (centres unmarked) (as salt: HCl) [Compound 22, 1-(Chloromethyl)-3-{5-[2-(dimethylamino)ethoxy]indol-2-carbonyl}-5-nitro-1,2-dihydro-3H-benzo[e]indole-7-carbonitrile] | > 300 °C |  |  |  |  | 
CN(C)CCOc1ccc2[nH]c(C(=O)N3CC(CCl)c4c3cc([N+](=O)[O-])c3cc(S(C)(=O)=O)ccc43)cc2c1 (centres unmarked) (as salt: HCl) [Compound 24, 1-(Chloromethyl)-3-{5-[2-(dimethylamino)ethoxy]indol-2-carbonyl}-7-(methylsulfonyl)-5-nitro-1,2-dihydro-3H-benzo[e]indole] | 250 to 252 °C |  |  |  |  | 
CN(C)CCOc1ccc2[nH]c(C(=O)N3CC(CCl)c4c3cc([N+](=O)[O-])c3cc(S(N)(=O)=O)ccc43)cc2c1 (centres unmarked) (as salt: HCl) [Compound 26, 1-(Chloromethyl)-3-{5-[2-(dimethylamino)ethoxy]indol-2-carbonyl}-5-nitro-1,2-dihydro-3H-benzo[e]indole-7-sulfonamide] | > 350 °C |  |  |  |  | 
CNS(=O)(=O)c1ccc2c3c(cc([N+](=O)[O-])c2c1)N(C(=O)c1cc2cc(OCCN(C)C)ccc2[nH]1)CC3CCl (centres unmarked) (as salt: HCl) [Compound 32, 1-(Chloromethyl)-3-{5-[2-(dimethylamino)ethoxy]indol-2-carbonyl}-N-methyl-5-nitro-1,2-dihydro-3H-benzo[e]indole-7-sulfonamide] | > 350 °C |  |  |  |  | 
CN(C)CCOc1ccc2[nH]c(C(=O)N3CC(CCl)c4c3cc([N+](=O)[O-])c3cc(S(=O)(=O)N(C)C)ccc43)cc2c1 (centres unmarked) (as salt: HCl) [Compound 38, 1-(Chloromethyl)-3-{5-[2-(dimethylamino)ethoxy]indol-2-carbonyl}-N,N-dimethyl-5-nitro-1,2-dihydro-3H-benzo[e]indole-7-sulfonamide] | > 350 °C |  |  |  |  | 
COc1cc2cc(C(=O)N3CC(CCl)c4c3cc([N+](=O)[O-])c3ccc(C(=O)NCCN(C)C)cc43)[nH]c2c(OC)c1OC (centres unmarked) (as salt: HCl) [Compound 44, 1-(Chloromethyl)-N-[2-(dimethylamino)ethyl]-5-nitro-3-(5,6,7-trimethoxyindol-2-carbonyl)-1,2-dihydro-3H-benzo[e]indole-8-carboxamide] | 228 to 229 °C (dec.) |  |  |  |  | 
CC(=O)c1cccc2c3c(cc([N+](=O)[O-])c12)N(C(=O)c1cc2cc(OCCN(C)C)ccc2[nH]1)CC3CCl (centres unmarked) [Compound 4] |  | 12 | 5.2 |  |  | IC50 [1]: 0.64 µM; IC50 [2]: 0.2 µM
CN(C)CCOc1ccc2[nH]c(C(=O)N3CC(CCl)c4c3cc([N+](=O)[O-])c3cc([N+](=O)[O-])ccc43)cc2c1 (centres unmarked) [Compound 9, 1-(Chloromethyl)-3-{5-[2-(dimethylamino)ethoxy]indol-2-carbonyl}-5,7-dinitro-1,2-dihydro-3H-benzo[e]indole] |  | 9.3 | 9.6 | 1.1 | 0.89 | 
CN(C)CCOc1ccc2[nH]c(C(=O)N3CC(CCl)c4c3cc([N+](=O)[O-])c3cc(C(=O)NCCO)ccc43)cc2c1 (centres unmarked) [Compound 19, 1-(Chloromethyl)-3-(5-[2-(dimethylamino)ethoxy]indol-2-carbonyl)-N-(2-hydroxyethyl)-5-nitro-1,2-dihydro-3H-benzo[e]indole-7-carboxamide] |  | 160 | 490 | 8.9 | 12 | 
COc1cc2cc(C(=O)N3CC(CCl)c4c3cc([N+](=O)[O-])c3cc(C#N)ccc43)[nH]c2c(OC)c1OC (centres unmarked) [Compound 21] |  | 13 | 2.5 |  |  | IC50 [1]: 6.4 µM; IC50 [2]: 5.3 µM
COc1cc2cc(C(=O)N3CC(CCl)c4c3cc([N+](=O)[O-])c3cc(S(N)(=O)=O)ccc43)[nH]c2c(OC)c1OC (centres unmarked) [Compound 25, 1-(Chloromethyl)-5-nitro-3-(5,6,7-trimethoxyindol-2-carbonyl)-1,2-dihydro-3H-benzo[e]indole-7-sulfonamide] |  | 10 | 3.6 | 37 | 43 | 
CN(C)CCOc1ccc2[nH]c(C(=O)N3CC(CCl)c4c3cc([N+](=O)[O-])c3cc(S(=O)(=O)NO)ccc43)cc2c1.Cl (centres unmarked) [Compound 30, 1-(Chloromethyl)-3-{5-[2-(dimethylamino)ethoxy]indol-2-carbonyl}-N-hydroxy-5-nitro-4,2-dihydro-3H-benzo[e]indole-7-sulfonamide hydrochloride] |  | 55 | 160 |  |  | IC50 [1]: 24 µM; IC50 [2]: 24 µM
CN(C)CCOc1ccc2[nH]c(C(=O)N3CC(CCl)c4c3cc([N+](=O)[O-])c3cc(S(=O)(=O)NN)ccc43)cc2c1.Cl.Cl (centres unmarked) [Compound 31, 1-(Chloromethyl)-3-{5-[2-(dimethylamino)ethoxy]indol-2-carbonyl}-5-nitro-1,2-dihydro-3H-benzo[e]indole-7-sulfonohydrazide dihydrochloride] |  | 160 | 220 | 33 | 31 | 
CNS(=O)(=O)c1ccc2c3c(cc([N+](=O)[O-])c2c1)N(C(=O)c1cc2cc(OCCN(C)C)ccc2[nH]1)CC3CCl (centres unmarked) [Compound 32, 1-(Chloromethyl)-3-{5-[2-(dimethylamino)ethoxy]indol-2-carbonyl}-N-methyl-5-nitro-1,2-dihydro-3H-benzo[e]indole-7-sulfonamide] |  | 21 | 24 | 2.6 | 2.7 | 
CN(C)CCOc1ccc2[nH]c(C(=O)N3CC(CCl)c4c3cc([N+](=O)[O-])c3cc(S(=O)(=O)N(C)C)ccc43)cc2c1 (centres unmarked) [Compound 38, 1-(Chloromethyl)-3-{5-[2-(dimethylamino)ethoxy]indol-2-carbonyl}-N,N-dimethyl-5-nitro-1,2-dihydro-3H-benzo[e]indole-7-sulfonamide] |  | 2.4 | 3.6 | 0.5 | 1.1 | 
COC(=O)c1ccc2c([N+](=O)[O-])cc3c(c2c1)C(CCl)CN3C(=O)c1cc2cc(OCCN(C)C)ccc2[nH]1 (centres unmarked) [Compound 42, Methyl 1-(chloromethyl)-3-{5-[2-(dimethylamino)ethoxy]indol-2-carbonyl}-5-nitro-1,2-dihydro-3H-benzo[e]indole-8-carboxylate] |  | 2.4 | 1.6 | 0.52 | 0.55 | 
COc1cc2cc(C(=O)N3CC(CCl)c4c3cc([N+](=O)[O-])c3ccc(C(=O)NCCN(C)C)cc43)[nH]c2c(OC)c1OC (centres unmarked) [Compound 44, 1-(Chloromethyl)-N-[2-(dimethylamino)ethyl]-5-nitro-3-(5,6,7-trimethoxyindol-2-carbonyl)-1,2-dihydro-3H-benzo[e]indole-8-carboxamide] |  | 16 | 2.4 | 2.5 | 1.3 | 
COc1cc2cc(C(=O)N3CC(CCl)c4c3cc([N+](=O)[O-])c3cccc([N+](=O)[O-])c43)[nH]c2c(OC)c1OC (centres unmarked) [Compound 51, 1-(Chloromethyl)-5,9-dinitro-(5,6,7-trimethoxyindol-2-carbonyl)-1,2-dihydro-3H-benzo[e]indole] |  |  | 1.2 |  |  | IC50 [1]: 55 µM; IC50 [2]: 34 µM
COc1cc2cc(C(=O)N3CC(CCl)c4c3cc([N+](=O)[O-])c3ccccc43)[nH]c2c(OC)c1OC (centres unmarked) [Compound R1, reference compound] |  | 2.8 | 2.5 | 4.2 | 3.4 | 
